For data set [1], the system named is NCI-H292: human mucoepidermoid lung carcinoma cells. The data set is described as follows: MTT assay, cytotoxic effect on NCI-H292. Type of data set: cell-based. The conditions noted are these: Table 2, metabolites and small-molecule reference examples. The method, then: (§1) The analysis of the cytotoxic effects of the ADCs was carried out with various cell lines:
(§2) The cells were cultivated by the standard method as stated by the American Tissue Culture Collection (ATCC) or the Leibniz-Institut DSMZ-Deutsche Sammlung von Mikroorganismen und Zellkulturen GmbH (DSMZ) for the cell lines in question.
(§3) The cells were then incubated in an incubator at 37° C., and 5% carbon dioxide. […] To this end, the MTT reagent was incubated with the cells for 4 h, followed by lysis of the cells overnight by addition of the detergent. […] The measured data were used to calculate the IC50 of the growth inhibition using the DRC (dose response curve). The proliferation of cells which were not treated with test substance but were otherwise identically treated was defined as the 100% figure.
(In general: Formazan colour is commonly taken as a measure of viable cells.)

The next data set concerns Caco-2 cells. The data set is described as follows: Caco-2 flux assay for cell permeability. Type of data set: in vitro ADME. The conditions noted are these: Caco-2, 2 hours incubation.
Data set [2] concerns SK-HEP-1: human liver cell cancer line. Nature of the data set: MTT assay, cytotoxic effect on SK-HEP-1. Type of data set: cell-based. The conditions noted are these: Table 2, metabolites and small-molecule reference examples. Here is the method: as §1, §2, §3
The nature of data set [3]: Caco-2 flux assay for cell permeability. It counts as in vitro ADME. The conditions noted are these: human; for Papp B→A at 2 h: Caco-2, 2 hours incubation; for efflux ratio at 2 h: ratio of Papp (B-A) to Papp (A-B), Caco-2. A general note: Passage across Caco-2 layers is used to estimate intestinal permeability.
Data set [4] concerns KPL4: human breast cancer cell line. The data set is described as follows: MTT assay, cytotoxic effect on KPL4. Type of data set: cell-based. The conditions noted are these: Table 2, metabolites and small-molecule reference examples. The method, then:
as §1, §2, §3

The IC50 is the concentration needed to halve the response being measured. Turning to `CC(C)(C)[C@H](c1cc(-c2cc(F)ccc2F)cn1Cc1ccccc1)N(CC[C@H](N)C(=O)NCCNC(=O)CNC(=O)CC(SC[C@H](N)C(=O)O)C(=O)O)C(=O)CO.O=C(O)C(F)(F)F` (stereo partly drawn) [Example M26, 4-[(2-{[2-({(2S)-2-Amino-4-[{(1R)-1-[1-benzyl-4-(2,5-difluorophenyl)-1H-pyrrol-2-yl]-2,2-dimethylpropyl}(glycoloyl)amino]butanoyl}amino)ethyl]amino}-2-oxoethyl)amino]-2-{[(2R)-2-amino-2-carboxyethyl]sulphanyl}-4-oxobutanoic acid/trifluoroacetic acid (1:1)], the IC50 in data set [1] was determined as 63.8 nM; in data set [2], 19 nM. In addition, the “Papp (B-A)” value in the data set with Caco-2 cells came out at 1.3 ×10⁻⁶ cm/s.

The Papp B→A is how fast a substance crosses the layer from the basolateral side. In data set [3], `CC(C)(C)[C@H](c1cc(-c2cc(F)ccc2F)cn1Cc1ccccc1)N(CCCN)C(=O)CSC[C@H](NC(=O)CCOCCOCCOCCOCCNC(=O)CNC(=O)CC(SC[C@H](N)C(=O)O)C(=O)O)C(=O)O.O=C(O)C(F)(F)F.O=C(O)C(F)(F)F` (stereo partly drawn) [Example M20, (1R,4R,27R,33R)-1-Amino-32-(3-aminopropyl)-33-[1-benzyl-4-(2,5-difluorophenyl)-1H-pyrrol-2-yl]-34,34-dimethyl-6,9,25,31-tetraoxo-13,16,19,22-tetraoxa-3,29-dithia-7,10,26,32-tetraazapentatriacontane-1,4,27-tricarboxylic acid/trifluoroacetic acid (1:2)] yielded a Papp B→A at 2 h of 0.09 ×10⁻⁶ cm/s.

Turning to `CC(C)(C)[C@H](c1cc(-c2cc(F)ccc2F)cn1Cc1ccccc1)N(CC[C@H](N)C(=O)N[C@H](CCC(=O)O)C(=O)O)C(=O)CO.O=C(O)C(F)(F)F` [Example M25, N-{(2S)-2-Amino-4-[{(1R)-1-[1-benzyl-4-(2,5-difluorophenyl)-1H-pyrrol-2-yl]-2,2-dimethylpropyl}(glycoloyl)amino]butanoyl}-L-glutamic acid/trifluoroacetic acid (1:1)], the IC50 in data set [1] (Homo sapiens, NCI-H292) came out at 500 nM; in data set [2] (Homo sapiens, SK-HEP1) it was 500 nM; in data set [4] (Homo sapiens, KPL4), 500 nM. For the same compound, the “Papp (B-A)” value in the data set with Caco-2 cells stood at 0.81 ×10⁻⁶ cm/s.

In general, efflux ratio refers to the permeability from basolateral to apical divided by that in the opposite direction, in the common usage. `CC(C)(C)[C@H](c1cc(-c2cc(F)ccc2F)cn1Cc1ccccc1)N(CC[C@H](N)C(=O)NCCNC(=O)CCCC(=O)NCCCC[C@H](N)C(=O)O)C(=O)CO.O=C(O)C(F)(F)F` [Example M29, N^6-(5-{[2-({(2S)-2-Amino-4-[{(1R)-1-[1-benzyl-4-(2,5-difluorophenyl)-1H-pyrrol-2-yl]-2,2-dimethylpropyl}(glycoloyl)amino]butanoyl}amino)ethyl]amino}-5-oxopentanoyl)-L-lysine/trifluoroacetic acid (1:1)]: in data set [3], the Papp B→A at 2 h was 0.41 ×10⁻⁶ cm/s and the efflux ratio at 2 h came to 5.3.

With `CC(C)(C)[C@H](c1cc(-c2cc(F)ccc2F)cn1Cc1ccccc1)N(CC[C@H](N)C(=O)NCCNC(=O)CNC(=O)C(CC(=O)O)SC[C@H](N)C(=O)O)C(=O)CO` (single isomer, unassigned) [Example M16], the results for the half-inhibitory concentration (IC50) in data set [1], in data set [2] and in data set [4] were 143 nM, 44 nM and 195 nM, respectively.

Turning to `CC(C)(C)[C@H](c1cc(-c2cc(F)ccc2F)cn1Cc1ccccc1)N(CC[C@H](N)C(=O)NCCNC(=O)CNC(=O)CCCC(=O)NCCCC[C@H](N)C(=O)O)C(=O)CO.O=C(O)C(F)(F)F` [Example M28, N^6-{(3R,7S)-7-Amino-3-[1-benzyl-4-(2,5-difluorophenyl)-1H-pyrrol-2-yl]-4-glycoloyl-2,2-dimethyl-8,13,16,20-tetraoxo-4,9,12,15-tetraazaicosan-20-yl}-L-lysine/trifluoroacetic acid (1:1)], in data set [3], the Papp B→A at 2 h was 0.19 ×10⁻⁶ cm/s and the efflux ratio at 2 h was 1.

(Values after patent publication US20240043379A1, “PRODRUGS OF CYTOTOXIC ACTIVE AGENTS HAVING ENZYMATICALLY CLEAVABLE GROUPS” (Bayer Pharma Aktiengesellschaft, priority 2016, published 2024).)
